From EP0499581B1, “Stabilized polymer composition” (Ciba Specialty Chemicals Holding Inc., priority 1991, dated 1992)

Key:
Type in all cases: physicochemical
[1] = Yellowing (ASTM D 1925) after UV exposure in Weather-O-meter WRC 600, ABS/SAN/polycarbonate blend (Example 1); settings: Weather-O-meter WRC 600, 2 mm plates
Description: Dieses Copolymer wird in Pulverform mit derselben Menge von Styrolacrylnitril-copolymer (Suspension SAN, Ube Cycon) und der doppelten Menge von pulverförmigem Polycarbonat (PC 135, General Electric), mit gegebenenfalls weiteren Additiven, wie z.B. einem UV-Absorber, in einem Rhönrad vermischt. Die Mischung wird in einem Zweischnecken-Extruder (Temperatur-Zyklus: 165°C, 250°C, 275°C, 275°C, 270°C; Umdrehungen/Minute: 45) hergestellt.
(§1) Die erhaltenen Mischungen werden in einer Heizpresse bei 200°C zu 2 mm starken Platten gepresst. Aus den Platten werden Prüfkörper von 40 x 40 x 2 mm ausgeschnitten. Diese werden in einem Weather-O-meter® WRC 600 mit UV-Licht belichtet. In regelmässigen Abständen werden Proben entnommen und deren Vergilbung gemäss ASTM D 1925 gemessen.
Die mit der Belichtungszeit einhergehende Vergilbung, ausgedrückt in ΔYI (YI = Yellowness Index; ΔYI = Unterschied in YI-Wert zwischen unbelichteter und entsprechender belichteter Probe) und nach der angegebenen Methode ermittelt, ist in der Tabelle 1 wiedergegeben.

[2] = Impact bending strength (ASTM D 4508-85) after UV exposure in Xenotest 450, ABS/SAN/polycarbonate blend (Example 2); design: key to Schlagbiegefestigkeit in kJ/m^2 nach 200 Stunden in Xenotest 450: KB = Kein Bruch; settings: energy required to break
Description: (§2) Beispiel 2: Das ABS-Copolymer gemäss Beispiel 1 wird in Pulverform mit derselben Menge von Styrolacrylnitril-Copolymer (Suspension SAN, Kostil, Montedipe), mit gegebenenfalls weiteren Additiven, wie z.B. einem UV-Absorber (Tinuvin® 234, Ciba-Geigy AG) und einem Phosphit (Irgafos® 168, Ciba-Geigy AG), in einem Rhönrad vermischt. Die Mischung wird in einem Zweischnecken-Extruder (Temperatur-Zyklus : 210°C/ 210°C/ 215°C/ 220°C) verarbeitet und granuliert.
(§3) Das erhaltene ABS-Granulat wird mit derselben Menge von Polycarbonat-Granulat (PC Calibre®, Dow) vermischt. Das Polymerblend wird in einem Zweischnecken-Extruder (Temperatur Zyklus : 240°C/ 240°C/ 250°C) hergestellt.
Weitere Prüfkörper von 12,7 x 60,0 x 2,0 mm werden in einem Xenotest 450 mit UV-Licht belichtet. In regelmässigen Abständern werden Proben entnommen und deren Schlagbiegefestigkeit gemäss Methode ASTM D 4508-85 gemessen. Dabei erfolgt der Pendelschlag auf die belichtete Seite der Probe.
In Tabelle 3 ist die für den Bruch der Probe erforderliche Energie angegeben. Je höher dieser Wert ist, desto höher ist die Schlagbiegefestigkeit der Probe. Bei ungeschädigten Proben erfolgt kein Bruch.

[3] = Yellowing (ASTM D 1925) after oven ageing, ABS/PBT blend (Example 3)
Description: Beispiel 3: Das ABS-Copolymer Granulat gemäss Beispiel 2 wird mit derselben Menge Polybutylenterephtahlat, (PBT CRASTIN® S 600, Ciba-Geigy) vermischt. Das Polymerblend wird in einem Zweischnecken-Extruder (Temperatur-Zyklus: 210°C/230°C/ 235°C/ 240°C) hergestellt. Proben von 12,7 x 60,0 x 2,0 mm werden in einer Arburg-Spritzgussanlage gespritzt bei einer maximalen Verarbeitungstemperatur von 260°C. Diese Plättchen werden in einem Ofen bei 200°C und bei 160°C gealtert. In regelmässigen Abständen werden die Proben entnommen und deren Vergilbung gemäss ASTM D 1925 gemessen.

[4] = Yellowing (ASTM D 1925) after UV exposure in Weather-Ometer WRC 600, ABS/SAN/polycarbonate blend (Example 2); settings: Weather-Ometer WRC 600, 2 mm plates
Description: as §2, §3
as §1, with “Mischungen (Blends)” for “Mischungen”, “Diese Plättchen” for “Diese”, “Weather-Ometer®” for “Weather-O-meter®”, “Vergilbung (oder Yellowness Index)” for “Vergilbung”, “gemäss Methode” for “gemäss”
Die mit der Belichtungszeit einhergehende Vergilbung is in der Tabelle 2 wiedergegeben.

CC(C)(c1ccccc1)c1cc(-n2nc3ccccc3n2)c(O)c(C(C)(C)c2ccccc2)c1 [0,3 % UV- Absorber *]
Δ YI nach Belichtungszeit von 250 h ([1]; 250 h UV): -7,0
Δ YI nach Belichtungszeit von 500 h ([1]; 500 h UV): -3,0
Δ YI nach Belichtungszeit von 1000 h ([1]; 1000 h UV): 7,5
Δ YI nach Belichtungszeit von 1250 h ([1]; 1250 h UV): 12,1
Δ YI nach Belichtungszeit von 1500 h ([1]; 1500 h UV): 14,9

CC(C)(c1ccccc1)c1cc(-n2nc3ccccc3n2)c(O)c(C(C)(C)c2ccccc2)c1 [0,50 % TINUVIN® 234]
Schlagbiegefestigkeit in kJ/m^2 nach 200 Stunden in Xenotest 450 ([2]; 200 h Xenotest 450): KB
Schlagbiegefestigkeit in kJ/m^2 nach 300 Stunden in Xenotest 450 ([2]; 300 h Xenotest 450): 15±2 kJ/m^2
Schlagbiegefestigkeit in kJ/m^2 nach 500 Stunden in Xenotest 450 ([2]; 500 h Xenotest 450): 13±1 kJ/m^2
Schlagbiegefestigkeit in kJ/m^2 nach 1000 Stunden in Xenotest 450 ([2]; 1000 h Xenotest 450): 11±1 kJ/m^2
Schlagbiegefestigkeit in kJ/m^2 nach 1500 Stunden in Xenotest 450 ([2]; 1500 h Xenotest 450): 11±1 kJ/m^2
Δ YI nach Ofenalterung bei 160°C nach 60 min ([3]; oven 160°C, 60 min): 4,7
Δ YI nach Ofenalterung bei 160°C nach 90 min ([3]; oven 160°C, 90 min): 10,8
Δ YI nach Ofenalterung bei 160°C nach 120 min ([3]; oven 160°C, 120 min): 11,6
Δ YI nach Ofenalterung bei 160°C nach 160 min ([3]; oven 160°C, 160 min): 20,4
Δ YI nach Ofenalterung bei 160°C nach 840 min ([3]; oven 160°C, 840 min): 56,3
Δ YI nach Ofenalterung bei 200°C nach 10 min ([3]; oven 200°C, 10 min): 6,0
Δ YI nach Ofenalterung bei 200°C nach 20 min ([3]; oven 200°C, 20 min): 16,4
Δ YI nach Ofenalterung bei 200°C nach 40 min ([3]; oven 200°C, 40 min): 33,1
Δ YI nach Ofenalterung bei 200°C nach 60 min ([3]; oven 200°C, 60 min): 43,9
Δ YI nach Ofenalterung bei 200°C nach 90 min ([3]; oven 200°C, 90 min): 55,3
Δ YI nach Belichtungszeit von 500 h ([4]; 500 h UV): -7
Δ YI nach Belichtungszeit von 1000 h ([4]; 1000 h UV): 1,1
Δ (YI) nach Belichtungszeit von 2000 h ([4]; 2000 h UV): 16,1
Δ (YI) nach Belichtungszeit von 3000 h ([4]; 3000 h UV): 23,4
Δ (YI) nach Belichtungszeit von 4000 h ([4]; 4000 h UV): 23,9
